# In PubChem BioAssay (NCI):
# Values joined by “and” are separate entries in the source; they are usually repeats but may differ in a detail not shown here. Equal values may be shown once.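 48-hour exposure; five concentrations; linearly interpolated endpoints. Abbreviation: GI50, concentration required for 50% inhibition of growth. Definition used: TGI = concentration required for complete inhibition of growth.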
# Columns and labels:
# Experiment in all cases: NCI anticancer screen, dose series, 48 h
# BT-549 breast = tested on: BT-549 breast
# CAKI-1 renal = tested on: CAKI-1 renal
# CCRF-CEM leukemia = tested on: CCRF-CEM leukemia
# HCT-15 colon = tested on: HCT-15 colon
# MDA-MB-231 breast = tested on: MDA-MB-231 breast
# OVCAR-4 ovarian = tested on: OVCAR-4 ovarian
# SF-268 CNS = tested on: SF-268 CNS
# SF-539 CNS = tested on: SF-539 CNS
# SNB-19 CNS = tested on: SNB-19 CNS
# T-47D breast = tested on: T-47D breast
SMILES,GI50 (BT-549 breast) [µM],TGI (BT-549 breast) [µM],GI50 (CAKI-1 renal) [µM],TGI (CAKI-1 renal) [µM],GI50 (CCRF-CEM leukemia) [µM],TGI (CCRF-CEM leukemia),GI50 (HCT-15 colon) [µM],TGI (HCT-15 colon) [µM],GI50 (MDA-MB-231 breast) [µM],TGI (MDA-MB-231 breast) [µM],GI50 (OVCAR-4 ovarian) [µM],TGI (OVCAR-4 ovarian) [µM],GI50 (SF-268 CNS) [µM],TGI (SF-268 CNS) [µM],GI50 (SF-539 CNS) [µM],TGI (SF-539 CNS) [µM],GI50 (SNB-19 CNS) [µM],TGI (SNB-19 CNS) [µM],GI50 (T-47D breast) [µM],TGI (T-47D breast) [µM]
NC(N)=N/N=C(/c1ccccc1)c1ccc(Cl)cc1,50.5,> 100,13.9,> 100,3.89,> 100 µM,5.8,> 100,16.5,56.6,19,> 100,8.44,> 100,18.8,53.5,87.2,> 100,> 100,> 100
O=C1CSC(=S)N1Cc1cccnc1,18.6,44.3,12.4,33.4,4.37,86.2 µM,2.87,11.8,4.47,17.2,7.78,25.4,5.75,23.3,6.33,23.4,47.8,> 100,11.1,32.7
CCCCCCCCCCCCSC(=NC)NC,4.09,21,1.92,4.8,2.63,9.97 µM,1.55,3.39,2.02,4.15,2.16,5.61,3.82,22.5,1.67,3.14,3.06,17.6,2.04,4.77
Cn1c(=O)c2[nH]c(C3CC(=O)CC(c4nc5c([nH]4)c(=O)n(C)c(=O)n5C)N3)nc2n(C)c1=O (stereo not drawn),,> 100,,> 100,,> 100 µM,,> 100,,> 100,,> 100,,> 100,,> 100,,> 100,,> 100
COc1ccc(Cn2cc3c(c2-c2ccc(O)cc2)CCc2cnoc2-3)cc1,10,26.7,0.331,18.8,0.304,4.2 µM,0.395,21.6,0.699,13.3,1.76,19.6,0.784,18.5,0.273,3.33,0.586,17.1,0.377,23.7
COc1ccc(/C(=N\O)c2cc(OC)c(OC)c(OC)c2)c(OC)c1N,3.86,> 100,4.38,> 100,3.54,> 100 µM,2.64,> 100,4.6,> 100,12.4,> 100,6.5,> 100,2.89,> 100,5.61,> 100,> 100,> 100
CO/N=C(\COc1ccc2c(c1)oc(=O)c1cc(OC)ccc12)c1cccc(OC)c1,> 100,> 100,> 100,> 100,> 100,> 100 µM,> 100,> 100,> 100,> 100,> 100,> 100,> 100,> 100,> 100,> 100,> 100,> 100,> 100,> 100
O=C1/C(=C/c2ccc(Cl)cc2)CN(Cc2cn(CCNc3ccnc4cc(Cl)ccc34)nn2)C/C1=C\c1ccc(Cl)cc1,0.488,1.44,0.346,1.57,0.309,> 100 µM,0.308,1.06,0.293,0.966,0.353,1.81,0.27,0.786,0.264,0.742,0.319,1.27,0.946,3.62
COc1cc(C(=O)N2CCN(c3ccccc3OC)CC2)c(N)cc1OCc1ccccc1,27.6,66.8,37.9,> 100,34.7,98.3 µM,34.9,> 100,19.2,42.6,32.2,> 100,43.8,> 100,45.3,> 100,25.7,> 100,26.2,99.5
Oc1ccc2ccccc2c1C(c1ccc(Cl)cc1)c1c(O)ccc2ccccc12,,14.1,,9.08,,7.46 µM,,> 30.2,,9.24,,11.2,,7.26,,31.4,,19,,12.3
Cc1ccc(NSc2ccccc2[N+](=O)[O-])cc1,2.21,23,1.36,25.3,0.85,> 52.2 µM,0.155,14.2,1.06,15.5,6.26,23.2,1.15,19.7,0.847,5.11,1.22,19.6,0.444,40.4
Cc1cc(O)ccc1O,16.3,> 100,20.7,57.4,3.4,> 100 µM,16.6,34.8,11.4,23.6,15.6,29,35.3,> 100,15.3,29.6,41.4,> 100,18.2,60.8
CC(C)(C)c1cn2cccc(C(=O)N3CCN(CC(=O)Nc4ccc(Cl)cc4C(=O)c4ccccc4Cl)CC3)c2n1,3.8,19.7,3.31,14.2,3.39,13.7 µM,4.81,32,13.1,34.5,7.9,> 100,13,43.6,10,22.3,15.3,54.8,5.33,> 100
C/C1=C\CC[C@@]2(C)O[C@@H]2C[C@@H]2[C@H](C/C(C)=C/CC1)OC(=O)C21CCN=N1 (stereo partly drawn),> 100,> 100,> 100,> 100,44.9,75 µM and > 100 µM,> 100,> 100,> 100,> 100,,75,> 100,> 100,> 100,> 100,> 100,> 100,,> 100
CO/N=C(\COc1ccc2c(c1)oc(=O)c1cc(OC)ccc12)c1ccc(F)cc1,23.4,55.2,19.1,55,47.5,> 100 µM,24.7,81.9,15.8,42.8,21.2,58.3,29.9,> 100,23.5,63,30.4,> 100,25,90.3
O=C1/C(=C/c2ccc([N+](=O)[O-])o2)Oc2ccccc21,1.76,3.74,0.758,2.17,0.338,1.38 µM,0.341,1.43,1.54,3.58,1.61,3.65,2.19,5.86,1.87,4.14,5.06,18.6,1.24,4.34
O=C(N/N=c1/ccoc2cccnc12)N1CCN(c2ncccn2)CC1,0.321,3.37,0.425,7.64,< 0.01,> 54.4 µM,< 0.01,10.1,0.278,7.41,< 0.0129,4.65,0.795,15.1,1.39,9.58,0.804,16.8,< 0.01,7.85
C=C(C)[C@@H]1CC[C@]2(C(=O)O)CC[C@]3(C)[C@H](CC[C@@H]4[C@@]5(C)C[C@@H](CC#Cc6ccc(Br)cc6)C(=O)C(C)(C)[C@@H]5CC[C@]43C)[C@@H]12,21,55,15.6,> 100,3.57,> 100 µM,25.8,> 100,3.67,14.8,4.95,> 100,6.23,> 100,22.5,> 100,6.19,64.8,9.02,> 100
CNc1cccnc1/C=N/NC(N)=S,,> 10,,> 10,,> 10 µM,,> 7.32,,> 10,,> 10,,> 10,,1.54,,> 10,,> 10
